The nature of data set [1]: Dynamic vapor sorption (water uptake). It is filed as physicochemical. To be noted: for % water uptake at 85% r.h.: about 85% r.h. The text has this:
DVS (SMS): Surface Measurement Systems Ltd. DVS-1 water vapour sorption analyzer. The sample is placed on a platinum sample pan and allowed to equilibrate at a given relative humidity (r.h.), usually 50% r.h. Then, a pre-defined humidity program was started with a scanning rate of 5% r.h. change per hour. First step: from 50% r.h. to 0% r.h. (in case of a possibly hydrate as starting material 50 to 95% r.h.), second step: from 0% to 95% r.h. (in case of a possibly hydrate as starting material 95 to 0% r.h.)

Data set [2] is described as follows: Aqueous solubility and pH of the saturated solution. It is filed as physicochemical. Here is the method: Solubility: Solubility was determined by a stepwise addition of 0.05 mL portions of solvent to a suspension of 10 mg of sample in 0.05 mL of solvent.
The aqueous solubility of the respective compound was determined by HPLC, and the pH of the resulting saturated solution was measured. For each compound tested, a suspension was prepared and equilibrated for 24 hours at 25° C. The suspension was filtered, the filtrate was diluted and analysed by HPLC.

The next data set deals with T1, recombinant murine DHODH (Mus musculus, UniProt O35435).
T1 construct: Prof; M. Löffler, Marburg, Germany (gift)
T1 sequence (O35435 whole entry): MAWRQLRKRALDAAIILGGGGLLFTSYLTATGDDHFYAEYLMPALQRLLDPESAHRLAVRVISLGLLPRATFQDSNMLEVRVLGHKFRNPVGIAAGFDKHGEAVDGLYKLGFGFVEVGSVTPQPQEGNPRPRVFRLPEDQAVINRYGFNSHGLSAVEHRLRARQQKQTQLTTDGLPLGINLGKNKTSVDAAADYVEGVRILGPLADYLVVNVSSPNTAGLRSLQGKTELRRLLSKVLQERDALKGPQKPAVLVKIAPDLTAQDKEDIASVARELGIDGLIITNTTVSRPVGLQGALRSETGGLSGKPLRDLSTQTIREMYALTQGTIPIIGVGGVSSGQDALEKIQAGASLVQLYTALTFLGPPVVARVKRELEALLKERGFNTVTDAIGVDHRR
As to the kind of experiment: Inhibition assay of DHODH activity (murine enzyme). Type of data set: biochemical. To be noted: class symbols, key in nM. Here is the method:
(§1) The standard assay mixture contained 50 μM decyclo ubichinone, 100 μM dihydroorotate, 60 μM 2,6-dichloroindophenol, as well as 20 mU DHODH. The volume activity of the recombinant enzyme used was 30 U/ml. Measurements were conducted in 50 mM TrisHCl (150 mM KCl, 0.1% Triton X-100, pH 8.0) at 30° C. in a final volume of 1 ml. The components were mixed, and the reaction was started by adding dihydroorotate. The course of reaction was followed by spectrophotometrically measuring the decrease in absorption at 600 nm for […].
(§2) Inhibitory studies were conducted in a standard assay with additional variable amounts of inhibitor. […] These investigations were carried out with recombinant human as well as with recombinant murine DHODH provided by Prof. M. Löffler, Marburg, Germany [M. Löffler, Chem. Biol. Interact.

The target in the next data set is DHODH (Rattus norvegicus, UniProt Q63707). The data set can be described thus: Inhibition assay of DHODH activity (column headed 'rate'). It is filed as biochemical. To be noted: class symbols, key in nM. As to the method:
as §1, §2

The target in the next data set is T2, recombinant human DHODH (Homo sapiens, UniProt Q02127).
T2 construct: Prof; M. Löffler, Marburg, Germany (gift)
T2 sequence (Q02127 whole entry): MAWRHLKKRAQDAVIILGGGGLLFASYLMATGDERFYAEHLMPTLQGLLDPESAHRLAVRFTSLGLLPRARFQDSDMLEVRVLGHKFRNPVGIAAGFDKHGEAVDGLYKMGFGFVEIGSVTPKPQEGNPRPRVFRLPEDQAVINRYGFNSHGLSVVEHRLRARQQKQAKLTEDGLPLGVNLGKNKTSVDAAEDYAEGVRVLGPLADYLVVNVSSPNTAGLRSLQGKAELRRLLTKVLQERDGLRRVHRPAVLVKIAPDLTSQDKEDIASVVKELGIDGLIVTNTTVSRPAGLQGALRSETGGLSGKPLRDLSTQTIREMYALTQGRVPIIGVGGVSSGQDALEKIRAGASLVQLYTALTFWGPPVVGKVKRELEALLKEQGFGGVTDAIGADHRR
The data set can be described thus: Inhibition assay of DHODH activity (human enzyme). Type of data set: biochemical. To be noted: recombinant human DHODH; class symbols, key in nM; read-out: human IC50-Value. As to the method:
as §1, §2

A short description of data set [3]: Long-term stability, 18 months storage, HPLC. It is filed as physicochemical. Here is the method: HPLC: HPLC was performed with a Dionex UltiMate® 3000 liquid chromatograph comprising a solvent Rack, a vacuum degasser, a binary pump (mikro), a static mixer (500 μl), an autosampler, a 25 μl sample loop, a 100 μl syringe, a column oven and a DAD detector (semimicro measuring cell), which was set up for UV analysis. Data analysis was done with Chromeleon® 6.80 SP3. Compounds were separated at 30° C. on a Phenomenex Onyx™ Monolithic C18 50×2 mm column. The injection volume was 2 μl and the detection wavelength was 305 nm. As mobile phase, a gradient of 0.1% formic acid in HPLC grade water/acetonitrile was used, starting at a concentration of 5% acetonitrile. The starting concentration was held for 1 minute, then the gradient was ramped linearly to 95% acetonitrile over the course of 2 min, held for 0.7 min at 95% acetonitrile, after which it was returned to 5% acetonitrile within 0.1 min and kept constant for 0.7 min to re-equilibrate the column. The mobile phase flow rate was 1.5 ml/min.
The compounds were stored for 18 months at ambient conditions (20-25° C., 30-60% relative humidity) and subsequently analysed by HPLC for purity.

The test system of data set [4] is Human peripheral blood mononuclear cells (PBMC), T-cell proliferation. As to the kind of experiment: Proliferation assay of human T-cells (PHA-stimulated PBMC, BrdU ELISA). Conditions: PHA 20 μg/ml, 48 hours. Type of data set: cell-based. As to the method: Human peripheral blood mononuclear cells (PBMC) were obtained from healthy volunteers and transferred to RPM11640 cell culture medium containing 10% dialyzed fetal calf serum. 80,000 cells per well were pipetted into a 96-well plate and phytohemagglutinin (PHA) was added in phosphate buffered saline to a final concentration of 20 μg/ml to stimulate T-cell proliferation. Vidofludimus was added in dimethyl sulfoxide (DMSO, final concentration: 0.1 Vol %) to final concentrations ranging from 20 nM to 50 μM. After incubation for 48 hours, cell proliferation was quantified using the “cell proliferation ELISA BrdU” (Roche) according to the manufacturer's instructions. […] (see FIG. 1).
In general terms: Incorporation of labelled thymidine or its analogues reports DNA synthesis.

Data set [5] has as its system human lymphocyte cell proliferation. As to the kind of experiment: Human lymphocyte cell proliferation (FIG. 1 legend). Type of data set: cell-based. Conditions: concentration of 100 μM.

Where only a bound is given, the exact number is not on record here.

Chain of DHODH (Q63707 whole entry): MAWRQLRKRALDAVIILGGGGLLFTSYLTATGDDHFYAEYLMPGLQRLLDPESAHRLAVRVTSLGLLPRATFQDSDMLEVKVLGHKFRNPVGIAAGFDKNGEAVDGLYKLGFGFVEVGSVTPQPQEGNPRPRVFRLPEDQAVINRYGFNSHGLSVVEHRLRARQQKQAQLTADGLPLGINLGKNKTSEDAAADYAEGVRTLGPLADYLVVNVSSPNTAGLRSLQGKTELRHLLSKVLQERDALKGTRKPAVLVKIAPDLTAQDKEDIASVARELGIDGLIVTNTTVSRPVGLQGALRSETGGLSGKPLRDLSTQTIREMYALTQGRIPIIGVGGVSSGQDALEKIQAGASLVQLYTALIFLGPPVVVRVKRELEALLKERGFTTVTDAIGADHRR

For orientation: Solubility means how much of the substance goes into solution per volume. Consider `[O-][n+]1ccccc1[S-].[O-][n+]1ccccc1[S-].[Zn+2]` [Zinc salt], for which, in data set [1], the “% water uptake at 95% r.h.” value turned out to be 5.5% and the “% water uptake at 85% r.h.” value is recorded as 4%. The Solubility in data set [2] (aqueous, suspension equilibrated for 24 hours at 25° C.) was found to be 950 µg/mL. This molecule returned a pH in data set [2] (pH of the resulting saturated solution) of 6.3.

What is called IC50 is the concentration needed to halve the response being measured. As for `COc1ccccc1-c1cc(F)c(NC(=O)C2=C(C(=O)O)COC2)c(F)c1` [Compound 47, 4-((3,5-difluoro-2′-methoxy-[1,1′-biphenyl]-4-yl)carbamoyl)-2,5-dihydrofuran-3-carboxylic acid], the IC50 at recombinant murine DHODH was above 1500 nM; against DHODH, below 800 nM; at recombinant human DHODH, below 800 nM.

Regarding `COc1cccc(-c2ccc(NC(=O)C3=C(C(=O)O)CCC3)c(F)c2)c1` [Compound 26, 2-((3-fluoro-3′-methoxy-[1,1′-biphenyl]-4-yl)carbamoyl)cyclopent-1-enecarboxylic acid], the Peak area in data set [3] (HPLC after 18 months storage at ambient conditions (20-25° C., 30-60% relative humidity)) was above 99%. Moreover, in data set [3] (ambient conditions (20-25° C., 30-60% relative humidity), LOD for hydrolysis product: 0.1 μg/ml), the “Occurrence of hydrolysis product in HPLC after 18 months storage” value is given as “Below LOD*”. Also, the IC50 is 4.1 µM in data set [4] and above 1500 nM on recombinant murine DHODH. Further, the “% water uptake at 95% r.h.” value in data set [1] is 0.1%. Also, in data set [1], the “% water uptake at 85% r.h.” value was 0.03%.

As for `O=C(O)C1=C(C(=O)Nc2ccc(-c3ccccc3)cc2)CCC1` [2-(Biphenyl-4-ylcarbamoyl)-cyclopent-1-enecarboxylic acid], the “Reduction of human lymphocyte cell proliferation” value in data set [5] is recorded as “Reduction of human lymphocyte cell proliferation”.

The record behind these values is patent publication US20120035175A1, “Novel salts as Anti-Inflammatory, Immunomodulatory and Anti-Proliferatory Agents” (4SC AG, priority 2010, published 2012).
